Earlier results in patent publication US20130116244A1, “PHAR[…] COMPOSITIONS” (AESICA FORMULATION DEVELOPMENT LIMITED, priority 2010, published 2013).

Experiments:
[1] = not given; remark: listed apart in the source
[2] = in vivo

SMILES	time after which anticonvulsant/sedative effects wear off (typically)	diazepam dose equal in effect to lorazepam 1 mg (relative potency) [1]	duration of anticonvulsant/sedative effects (effects can last for)	half life [2]
CN1C(=O)CN=C(c2ccccc2)c2cc(Cl)ccc21 [diazepam]	15 to 30 min	–	–	–
O=C1Nc2ccc(Cl)cc2C(c2ccccc2Cl)=NC1O (stereo not shown) [lorazepam, 7-chloro-5-(2-chlorophenyl)-1,3-dihydro-3-hydroxy-2H-1,4-benzodiazepin-2-one]	–	10 mg	12 to 24 h	10 to 20 h
